From patent EP0067913B1, “Composition for the treatment of acne” (RUSH-HAMPTON INDUSTRIES, INC., priority 1981, dated 1982)

How the values were obtained:
[1] = Water solubility (qualitative comparison); format: physicochemical; settings: qualitative comparison with partially hydrolyzed naringin
[2] = test system: Pityrosporum ovale ATCC 14521; experiment: Fungicidal activity test in corn oil medium (Sabouraud Dextrose broth and corn oil); format: cell-based; settings: concentrations of 200 ppm or greater in the upper oil layer; 37°C, aerobic conditions, 7 days
Experimental: This organism is cultured in a corn oil medium prepared with Sabouraud Dextrose broth and Mazola@ Corn Oil. Solutions of naringenin and this broth were made in which the concentration of naringenin in the upper oil layer was 200 ppm, 400 ppm, 600 ppm, and 800 ppm. Three solutions of each concentration were tested. Each tube was inoculated with a loop full of the test organism and incubated at 37°C under aerobic conditions for 7 days.

## O=C1C[C@@H](c2ccc(O)cc2)Oc2cc(O)cc(O)c21 [naringenin]
[1]
  water solubility: less than those of partially hydrolyzed naringin
[2]
  effect on the growth of Pityrosporum ovale ATCC 14521: severely retarded the growth
